According to PMC7177633, “Effective Cellular Transport of Ortho-Halogenated Sulfonamide Derivatives of Metformin Is Related to Improved Antiproliferative Activity and Apoptosis Induction in MCF-7 Cells” (International Journal of Molecular Sciences, 2020):

How the values were obtained:
MCF-7 cells = assay: Annexin V-FITC/PI apoptosis assay, MCF-7; assay type: cell-based, human; details: for Early Apoptotic [E+−] / Late Apoptotic [E++] / Living Cells [E−−] / Necrotic Cells [E−+] / Single Cells in Gate B: MCF-7, 24 h
Procedure: MCF-7 and MDA-MB-231 cells were seeded at a density of 5 × 10^4 per well on 24-well plates and incubated for 24 h (37 °C, 5% CO2) to obtain 70 % confluency. Then, the medium (control) or medium with the tested compounds in a volume of 250 μL was added and incubated for another 24 h. The cells were harvested using accutase (Sigma Aldrich, St. Louis, MO, USA) as a detaching reagent, collected to Eppendorf tubes and centrifuged (1100 rpm, 5 min). Afterwards, the cells were resuspended in 1 mL of a cold cell-staining buffer (Biolegend, London UK) and washed twice with a cell-staining buffer. The final step included suspension of the cell pellets in 100 μL of a binding buffer, staining with propidine iodide (PI; 10 μL) and FITC-annexin solutions (AV; 5 μL) (FITC Annexin V Apoptosis Detection Kit with PI (Biolegend, UK)). The samples were incubated for 20 min at room temperature in the dark, followed by an analysis conducted on a cytometer (CytoFlex, blue laser, 480 nm, Beckman-Coulter, Indianapolis, IN, USA). The results were analyzed using Kaluza 2.1 (Beckman-Coulter) software.
Annexin V (−) and PI (−) cells were considered living cells, annexin V (+) and PI (−) as early-apoptotic cells, annexin V (+) and PI (+) as late-apoptotic cells and annexin V (−) and PI (+) as necrotic cells.
The experiments were conducted in triplicates (n = 3). The coefficients of variation for the assay were determined (CV = 0.97–13.62%, depending on the calculated cell population).

MDA-MB-231 cells = assay: Intracellular GSH and GSSG, MDA-MB-231; assay type: cell-based, human
Procedure: The quantitative determination of glutathione and glutathione disulfide was performed using the enzymatic recycling method according to the protocol of Rahman. The cells were seeded at a density of 2 × 10^5 per well in a 6-well plate and cultured for 48 h. Then, the cells were treated with tested compounds 1, 4 and 7 at their respective ¼ and ½ IC50 values for MCF-7 and MDA-MB-231 cells. Additionally, controls with pure medium, AAPH (2,2′-Azobis(2-methylpropionamidine) dihydro-chloride, Sigma Aldrich, St. Louis, MO, USA) and ascorbic acid (Polish Chemical Reagents, Poland) were performed. The cells were incubated with compounds for another 24 h, then washed twice with 2 mL of cold, Ca^2+-/Mg^2+-free PBS (Biomed Lublin, Lublin, Poland). The cells were harvested using 1-mL accutase (Sigma Aldrich, St. Louis, MO, USA), and the wells were washed with 1 mL of cold growth medium. The cells were transferred to prechilled 2.0-mL Eppendorf tubes and centrifuged at 1000× g for 5 min at 4 °C. The supernatant was discarded, the pellets were resuspended in 1 mL of cold PBS, the number of cells was determined in each sample and the cellular suspension was centrifuged again. PBS was discarded, and the pellets were stored covered with 30-µL PBS at –70 °C. The following day, the cells were suspended in 0.5 mL of ice-cold extraction buffer (0.1% Triton-X (Polish Chemical Reagents, Gliwice, Poland) and 0.6% sulfosalicylic acid (Sigma Aldrich) in a potassium phosphate buffer with EDTA (Sigma Aldrich)) and sonicated in icy water for 3 min with vortexing every 30 s. The cells were frozen once again at −80 °C, defrosted on ice and frozen once again. Following the second freeze–thaw cycle, the cells were centrifuged at 1500× g for 5 min at 4 °C, and then, immediately, the supernatant was transferred to prechilled Eppendorf tubes. The samples were divided into two parts: one was used to measure GSH, and the other one was derivatized by an addition of 4 µL of 2-vinylpyridine (diluted 1:10 with phosphate buffer) (Sigma Aldrich, St. Louis, MO, USA) to determine the GSSG content.
GSH measurements included an addition of 20 µL of the tested sample, blank or GSH standard, 120 µL of the mixture of an equal volume of DTNB solution (2 mg dissolved in 3 mL of phosphate buffer, Sigma Aldrich) and glutathione reductase (10 U in 3 mL of phosphate buffer, Sigma Aldrich, St. Louis, MO, USA) and 30 s of incubation to allow the conversion of GSSG to GSH. The final step included the addition of 60 µL of β-NADPH (2 mg dissolved in 3 mL of phosphate buffer, Sigma Aldrich). The absorbance was read immediately at 415 nm in a microplate reader (Bio-Rad), and the measurements were taken every 30 s for 2 min (6 readings in total). The amount of GSH was calculated on the basis of the calibration curve prepared using GSH (Sigma Aldrich, St. Louis, MO, USA) at concentrations ranging from 0.040 to 2.6 nmol/mL.
The quantification of GSSG in the test samples was performed according to the same procedure as GSH. The samples treated with 2-VP were incubated for one hour at room temperature, and then, 20 µL of the tested sample was analyzed using the same reagents which were applied in the GSH measurements. The amount of GSSG was calculated on the basis of the calibration curve, prepared using GSSG (Sigma Aldrich) at concentrations of 0.040–2.6 nmol/mL. The results are presented as mean ± SD, n = 6–8 and expressed as nmol per […].

[1] = IC50 (Comp. 1 13, Comp. 4 430, Comp. 7 55 μmol/L)
[2] = ½ × IC50 (Comp. 1 6.5, Comp. 4 215, Comp. 7 27.5 μmol/L)
[3] = MCF-7, 430 uM, representative cytogram Figure 7A
[4] = ½ × IC50 (Comp. 1 6.5, Comp. 4 215, Comp. 7 27.5 μmol/L), listed as Comp. 4

| SMILES | Early Apoptotic [E+−] (MCF-7 cells; [1]) | Late Apoptotic [E++] (MCF-7 cells; [1]) | Living Cells [E−−] (MCF-7 cells; [1]) | Necrotic Cells [E−+] (MCF-7 cells; [1]) | Single Cells in Gate B (MCF-7 cells; [1]) | Early Apoptotic [E+−] (MCF-7 cells; [2]) | Late Apoptotic [E++] (MCF-7 cells; [2]) | Living Cells [E−−] (MCF-7 cells; [2]) | Necrotic Cells [E−+] (MCF-7 cells; [2]) | Single Cells in Gate B (MCF-7 cells; [2]) | GSH (MDA-MB-231 cells; MDA-MB-231, 1/2 × IC50, 24 h) | GSH:GSSG Ratio (MDA-MB-231 cells; MDA-MB-231, 1/2 × IC50, 24 h) | GSSG (MDA-MB-231 cells; MDA-MB-231, 1/2 × IC50, 24 h) | GSH (MDA-MB-231 cells; MDA-MB-231, 1/4 × IC50, 24 h) | GSH:GSSG Ratio (MDA-MB-231 cells; MDA-MB-231, 1/4 × IC50, 24 h) | GSSG (MDA-MB-231 cells; MDA-MB-231, 1/4 × IC50, 24 h) | other results |
| --- | --- | --- | --- | --- | --- | --- | --- | --- | --- | --- | --- | --- | --- | --- | --- | --- | --- |
| CN(C)C(=N)N=C(N)NS(=O)(=O)c1ccccc1Cl [Compound 1] | 35.79 ± 3.78 % | 33.84 ± 3.17 % | 29.96 ± 6.41 % | 0.41 ± 0.02 % | 82.66 ± 0.68 % | 27.59 ± 1.03 % | 38.93 ± 3.46 % | 32.82 ± 4.50 % | 0.67 ± 0.08% | 77.51 ± 0.92 % | 242.0 ± 47.0 nmol/1 mln Cells | 12.1 | 19.9 ± 2.0 nmol/1 mln Cells | 238.0 ± 4.3 nmol/1 mln Cells | 12.2 | 19.5 ± 2.2 nmol/1 mln Cells | – |
| CN(C)C(=N)N=C(N)NS(=O)(=O)c1ccccc1F [Compound 7] | 24.35 ± 2.19 % | 43.24 ± 4.09 % | 31.88 ± 4.77 % | 0.54 ± 0.01 % | 79.48 ± 0.82 % | 23.59 ± 1.57 % | 35.98 ± 4.64 % | 39.85 ± 5.67 % | 0.57 ± 0.03 % | 78.97 ± 0.51 % | 248.7 ± 13.3 nmol/1 mln Cells | 11.3 | 21.9 ± 2.9 nmol/1 mln Cells | 265.0 ± 15.9 nmol/1 mln Cells | 11.8 | 22.5 ± 0.9 nmol/1 mln Cells | – |
| CN(C)C(=N)N=C(N)NS(=O)(=O)c1ccccc1Br [Compound 4] | 22.71 ± 2.11 % | 60.16 ± 2.21% | 16.84 ± 1.93 % | 0.29 ± 0.09 % | 83.19 ± 0.40 % | 30.69 ± 3.01% | 34.69 ± 1.51% | 34.17 ± 3.88% | 0.45 ± 0.15 % | 78.90 ± 0.11 % | 242.1 ± 13.7 nmol/1 mln Cells | 12.3 | 19.6 ± 1.4 nmol/1 mln Cells | 250.2 ± 12.1 nmol/1 mln Cells | 12.5 | 19.9 ± 2.3 nmol/1 mln Cells | Early apoptosis (representative cytogram) (MCF-7 cells; [3]): 24.99%; Late apoptosis (representative cytogram) (MCF-7 cells; [3]): 59.54%; Live cells (representative cytogram) (MCF-7 cells; [3]): 15.26%; Necrotic cells (representative cytogram) (MCF-7 cells; [3]): 0.21%; Late Apoptotic [E++] (MCF-7 cells; IC50 (Comp. 1 13, Comp. 4 430, Comp. 7 55 μmol/L), listed as Comp. 4): 60.16 ± 2.21 %; Early Apoptotic [E+−] (MCF-7 cells; [4]): 30.69 ± 3.01 %; Late Apoptotic [E++] (MCF-7 cells; [4]): 34.69 ± 1.51 %; Living Cells [E−−] (MCF-7 cells; [4]): 34.17 ± 3.88 % |
